Measured values from patent US9321762B2, “Quinazoline compounds, method for preparing the same and use thereof” (DEVELOPMENT CENTER FOR BIOTECHNOLOGY, priority 2013, dated 2016).
pIC50: −log10 of the molar value. Where two headings read alike, the source gives them in different places.

Columns and labels:
B-Raf kinase = biological target: T1, B-Raf kinase (Homo sapiens, UniProt P15056); test: B-Raf kinase assay ([33P] incorporation into MEK1(K97R)); assay type: biochemical; conditions: class symbols; 8 μM ATP; read-out: IC50 against B-Raf kinase
T1 construct: purchased Upstate Biotechnology
T1 sequence (P15056 whole entry): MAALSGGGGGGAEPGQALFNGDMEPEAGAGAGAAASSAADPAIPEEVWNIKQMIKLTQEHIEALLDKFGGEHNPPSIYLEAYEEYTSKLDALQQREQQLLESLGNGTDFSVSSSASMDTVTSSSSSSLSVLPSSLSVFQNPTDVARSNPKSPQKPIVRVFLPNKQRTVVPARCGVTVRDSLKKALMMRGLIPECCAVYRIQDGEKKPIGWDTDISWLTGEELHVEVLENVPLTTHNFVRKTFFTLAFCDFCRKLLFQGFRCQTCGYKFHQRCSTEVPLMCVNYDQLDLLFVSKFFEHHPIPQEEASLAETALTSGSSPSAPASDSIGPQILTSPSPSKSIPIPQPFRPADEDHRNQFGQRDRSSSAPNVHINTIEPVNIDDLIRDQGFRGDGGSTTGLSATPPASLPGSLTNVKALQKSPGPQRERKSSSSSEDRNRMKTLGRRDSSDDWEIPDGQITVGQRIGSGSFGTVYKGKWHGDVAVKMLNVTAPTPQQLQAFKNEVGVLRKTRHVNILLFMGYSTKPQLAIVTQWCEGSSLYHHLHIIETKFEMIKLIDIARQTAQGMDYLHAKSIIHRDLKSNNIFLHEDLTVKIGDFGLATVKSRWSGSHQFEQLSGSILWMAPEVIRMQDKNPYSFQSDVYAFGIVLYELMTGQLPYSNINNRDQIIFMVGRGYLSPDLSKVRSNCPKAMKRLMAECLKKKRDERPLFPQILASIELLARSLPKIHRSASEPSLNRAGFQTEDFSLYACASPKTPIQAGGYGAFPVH
Experimental: (§1) Inhibition of kinase activity by a test compound disclosed herein was estimated by quantifying the amount of [^33P] incorporation of a substrate in the presence of the test compound. Standard assay conditions were 5 ng of recombinant B-Raf kinase (Upstate Biotechnology) with 500 ng MEK1(K97R) in assay buffer (8 μM ATP, 0.5 μCi [^33P]ATP (specific activity 3000 Ci/mmol, PerkinElmer), 50 mM Tris/HCl (pH7.5), and 1 mM EGTA, 1 mM Na3VO4, 1% 2-mercaptoethanol, 0.1% Brij 35, and 0.2 mg/ml BSA) in a final volume of 25 μL. Reactions were incubated at 30° C. for 30 min and stopped by adding 3% phosphoric acid, harvested onto a 96-well GF/B UniFilter (PerkinElmer) using a unifilter harvester (PerkinElmer), and counted with a TopCount microplate scintillation counter (PerkinElmer). The IC50 values of inhibitors were determined after carrying out assays at 3-fold serially diluted concentrations of each compound in duplication. The results were analyzed using linear regression software (GraphPad Prism 4; GraphPad Software Inc.).

B-Raf(V600E) kinase = biological target: T2, B-Raf(V600E) kinase (Homo sapiens, UniProt P15056, V600E); test: B-Raf(V600E) kinase assay ([33P] incorporation into MEK1(K97R)); assay type: biochemical; conditions: class symbols; 8 μM ATP; read-out: IC50 against B-Raf(V600E) kinase
T2 construct: purchased Upstate Biotechnology
T2 sequence (P15056 whole entry V600E): as the sequence (P15056 whole entry) above, with V600E counted along it
Experimental: as §1, with “B-Raf(V600E)” for “B-Raf”, “MEK1 (K97R)” for “MEK1(K97R)”, “[^33P] ATP” for “[^33P]ATP”, “BSA), and the test compound (diluted with 4% DMSO) or DMSO alone (as a control)” for “BSA)”

C-Raf kinase = biological target: T3, C-Raf kinase (Homo sapiens, UniProt P04049); test: C-Raf kinase assay ([33P] incorporation into MEK1(K97R)); assay type: biochemical; conditions: class symbols; 8 μM ATP; read-out: IC50 against C-Raf kinase
T3 construct: purchased Upstate Biotechnology
T3 sequence (P04049 whole entry): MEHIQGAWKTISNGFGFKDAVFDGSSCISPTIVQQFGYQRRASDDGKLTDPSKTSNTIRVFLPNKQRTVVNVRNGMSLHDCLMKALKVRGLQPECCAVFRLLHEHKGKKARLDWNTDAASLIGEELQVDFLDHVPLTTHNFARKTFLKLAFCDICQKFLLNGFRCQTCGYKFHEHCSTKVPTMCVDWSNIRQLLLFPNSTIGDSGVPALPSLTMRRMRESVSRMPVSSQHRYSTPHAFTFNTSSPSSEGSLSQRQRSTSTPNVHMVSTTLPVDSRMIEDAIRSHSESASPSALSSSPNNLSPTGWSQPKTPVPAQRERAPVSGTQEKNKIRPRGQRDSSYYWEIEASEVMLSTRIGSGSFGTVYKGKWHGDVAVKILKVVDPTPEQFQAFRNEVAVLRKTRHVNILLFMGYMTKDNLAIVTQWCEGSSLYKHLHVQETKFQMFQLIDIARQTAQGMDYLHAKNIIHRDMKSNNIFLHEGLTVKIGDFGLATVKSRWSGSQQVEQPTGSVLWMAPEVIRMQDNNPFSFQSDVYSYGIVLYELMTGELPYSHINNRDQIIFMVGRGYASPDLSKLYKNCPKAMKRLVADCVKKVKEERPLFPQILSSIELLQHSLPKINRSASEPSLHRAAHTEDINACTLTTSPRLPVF
Experimental: as §1, with “were 2” for “were 5”, “recombinant C-Raf” for “recombinant B-Raf”, “ng MEK1 (K97R)” for “ng MEK1(K97R)”, “μCi [^33P] ATP” for “μCi [^33P]ATP”, “mg/ml BSA), and the test compound (diluted with 4% DMSO) or DMSO alone (as a control)” for “mg/ml BSA)”

VEGFR2 kinase = biological target: T4, VEGFR2 kinase (Homo sapiens, UniProt P35968); test: VEGFR2 radiometric kinase assay; assay type: biochemical; conditions: given as bound; 100 μM ATP; read-out: Inhibition activity, IC50 VEGFR2
T4 construct: VEGFR2 kinase domain alone, Millipore; purchased Millipore
T4 sequence (P35968 834-1162 limits assumed): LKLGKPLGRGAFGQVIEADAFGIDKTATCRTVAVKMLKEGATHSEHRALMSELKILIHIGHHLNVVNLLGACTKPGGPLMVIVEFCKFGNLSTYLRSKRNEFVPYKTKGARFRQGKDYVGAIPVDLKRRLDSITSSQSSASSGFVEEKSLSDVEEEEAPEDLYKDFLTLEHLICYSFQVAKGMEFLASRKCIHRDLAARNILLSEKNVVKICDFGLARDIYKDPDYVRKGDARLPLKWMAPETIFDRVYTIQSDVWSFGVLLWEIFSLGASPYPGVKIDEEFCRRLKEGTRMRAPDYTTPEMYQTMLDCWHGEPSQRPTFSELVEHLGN
Experimental: (§2) The inhibitory activity against VEGFR2 or EGFR was determined by radiometric kinase assay. The experimental condition for VEGFR2 kinase assay was 6.25 ng of recombinant VEGFR2 kinase (VEGFR2 kinase domain alone, Millipore), 5 μg of substrate Poly(Glu-Tyr) (4:1, Sigma), kinase reaction buffer (20 mM MOPS pH 7.0, 1 mM EDTA, 5% glycerol, 0.01% Brij-35, 0.1% β-mercaptoethanol, 1 mg/mL BSA, 100 μM ATP, and 0.1 μCi per well [^33P] ATP (specific activity 3000 Ci/mmol, PerkinElmer)), and the test compound (diluted with 4% DMSO) or DMSO alone (as a control) in a final volume of 25 μL. Reactions were incubated at 30° C. for 30 min and stopped by adding 3% phosphoric acid, harvested onto a 96-well GF/B UniFilter (PerkinElmer) using a unifilter harvester (PerkinElmer), and counted with a TopCount microplate scintillation counter (PerkinElmer).
(§3) Results of inhibition activity against VEGFR2 and EGFR kinases by the selected compounds, which have IC50 values on B-Raf kinase <300 nM, are summarized in Table 6.

EGFR kinase = biological target: T5, EGFR kinase (Homo sapiens, UniProt P00533); test: EGFR radiometric kinase assay; assay type: biochemical; conditions: 100 μM ATP, read-out: Inhibition activity, IC50 EGFR
T5 construct: EGFR kinase domain alone, Millipore; purchased Millipore
T5 sequence (P00533 712-979 limits assumed): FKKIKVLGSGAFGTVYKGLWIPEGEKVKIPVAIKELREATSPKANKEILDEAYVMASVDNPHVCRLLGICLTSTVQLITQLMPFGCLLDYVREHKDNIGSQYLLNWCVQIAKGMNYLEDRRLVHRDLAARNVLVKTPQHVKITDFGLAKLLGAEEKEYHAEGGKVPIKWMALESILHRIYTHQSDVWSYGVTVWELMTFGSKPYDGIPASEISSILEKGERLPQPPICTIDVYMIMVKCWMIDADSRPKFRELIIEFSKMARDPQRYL
Experimental: as §2
The experimental condition for EGFR kinase assay was 25 ng of EGFR kinase (EGFR kinase domain alone, Millipore), 3 μg of the substrate poly(Glu-Tyr), (Sigma), kinase reaction buffer (10 mM MOPS pH 7.0, 0.3 mM EDTA, 0.5% glycerol, 0.001% Brij-35, 10 mM MnCl2, 0.1 mg/ml BSA, 100 μM ATP, and 0.1 μCi per well [^33P]ATP (specific activity 3000 Ci/mmol, PerkinElmer)), and the test compound (diluted with 4% DMSO) or DMSO (as a control) in a final volume of 25 μL. Reactions were incubated at 30° C. for 30 min and stopped by adding 3% phosphoric acid, harvested onto a 96-well GF/B UniFilter (PerkinElmer) using a unifilter harvester (PerkinElmer), and counted with a TopCount microplate scintillation counter (PerkinElmer).
as §3

[1] = system: A375 melanoma cells and COLO205 colon cancer cells; test: Cell proliferation assay (CellTiter-96); assay type: cell-based; conditions: Homo sapiens; A375 or COLO205, 72 hours treatment; read-out: Cytotoxicity IC50 for A375 or COLO205
Experimental: The anti-proliferative activities of compounds of formula (I) against B-Raf(V600E) mutant human cancer cell lines, A375 melanoma cells and COLO205 colon cancer cells, were measured using the CellTiter™-96 assay kit (Promega) following the manufacturer's instructions. In brief, the cells were maintained in DMEM containing 10% FCS and incubated at 37° C. in 5% CO2 atmosphere. Cells were plated at a density of 2,000 cells/well on a 96-well plate and incubated for 24 h. Then, these cells were treated with different concentrations of the test compounds and incubated for another 72 hours. At the end of the incubation, CellTiter™-96 Aqueous One Solution Reagent (Promega) was added and incubated for another 4.0 hours. Cell viability was determined by measuring absorbance at 490 nm using EMax® microplate reader (Molecular Devices). Data were processed and analyzed using GraphPad Prism.

Row | SMILES | pIC50 (B-Raf kinase) | pIC50 (B-Raf(V600E) kinase) | pIC50 (C-Raf kinase) | pIC50 (VEGFR2 kinase) | pIC50 (EGFR kinase; given as bound) | pIC50 (EGFR kinase; class symbols) | pIC50 [1]
1 | CCCS(=O)(=O)Nc1ccc(F)c(Nc2ncnc3cc(OCCN4CCOCC4)c(-c4cccnc4F)cc23)c1F [compound 8, N-(2,4-difluoro-3-(6-(2-fluoropyridin-3-yl)-7-(2-morpholinoethoxy)quinazolin-4-ylamino)phenyl)propane-1-sulfonamide] | > 6.52 | > 6.52 | 6.00 to 6.52 | < 5.52 | < 5.52 |  | > 5.70
2 | CCCS(=O)(=O)Nc1ccc(F)c(Nc2ncnc3ccc(-c4cccnc4F)cc23)c1Cl [compound 9, N-(2-chloro-4-fluoro-3-(6-(2-fluoropyridin-3-yl)quinazolin-4-ylamino)phenyl)propane-1-sulfonamide] | 5.00 to 6.00 | 5.00 to 6.00 | 5.00 to 6.00 |  |  |  | 
3 | CCCS(=O)(=O)Nc1ccc(F)c(Nc2ncnc3ccc(-c4ccncc4)cc23)c1F [compound 12, N-(2,4-difluoro-3-(6-(pyridin-4-yl)-quinazolin-4-ylamino)phenyl)propane-1-sulfonamide] | > 6.52 | > 6.52 | > 6.52 | < 5.52 |  | 6.00 to 6.52 | > 5.70
4 | CCCS(=O)(=O)Nc1ccc(F)c(Nc2ccnc3ccc(-c4cccnc4F)cc23)c1F [compound 13, N-(2,4-difluoro-3-(6-(2-fluoropyridin-3-yl)-quinolin-4-ylamino)phenyl)propane-1-sulfonamide] | > 6.52 | > 6.52 | > 6.52 | < 5.52 | < 5.52 |  | > 5.70
5 | CCCS(=O)(=O)Nc1ccc(F)c(Nc2ccnc3ccc(-c4ccncc4)cc23)c1F [compound 14, N-(2,4-difluoro-3-(6-(pyridin-4-yl)quinolin-4-ylamino)phenyl)propane-1-sulfonamide] | > 6.52 | > 6.52 | > 6.52 | < 5.52 |  | 5.52 to 6.00 | > 5.70
6 | CCCS(=O)(=O)Nc1ccc(F)c(C(=O)c2ncnc3ccc(-c4cccnc4F)cc23)c1F [compound 48, N-(2,4-difluoro-3-(6-(2-fluoropyridin-3-yl)quinazoline-4-carbonyl)phenyl)propane-1-sulfonamide] | > 6.52 | > 6.52 | > 6.52 | < 5.52 | < 5.52 |  | 
7 | CCCS(=O)(=O)Nc1ccc(F)c(Nc2ncnc3ccc(-c4cnc(N(C)C)nc4)cc23)c1F [compound 51, N-(3-(6-(2-(dimethylamino)pyrimidin-5-yl)quinazolin-4-ylamino)-2,4-difluorophenyl)propane-1-sulfonamide] | 6.00 to 6.52 | 6.00 to 6.52 | 5.00 to 6.00 |  |  |  | 
8 | CCCS(=O)(=O)Nc1ccc(F)c(Nc2ncnc3ccc(-c4ccc(N(C)C)nc4)cc23)c1F [compound 54, N-(3-(6-(6-(dimethylamino)pyridin-3-yl)quinazolin-4-ylamino)-2,4-difluorophenyl)propane-1-sulfonamide] | 6.00 to 6.52 | 6.00 to 6.52 | 6.00 to 6.52 |  |  |  | 

More lines, main results first:

Row | pIC50 (B-Raf kinase) | pIC50 (B-Raf(V600E) kinase) | pIC50 (C-Raf kinase) | pIC50 (VEGFR2 kinase) | pIC50 (EGFR kinase; given as bound) | pIC50 (EGFR kinase; class symbols) | SMILES | pIC50 [1]
9 | > 6.52 | > 6.52 | > 6.52 | < 5.52 | < 5.52 |  | CCCS(=O)(=O)Nc1ccc(F)c(Nc2ncnc3ccc(-c4cccnc4F)cc23)c1F [compound 1, N-(2,4-difluoro-3-(6-(2-fluoropyridin-3-yl)quinazolin-4-ylamino)phenyl)propane-1-sulfonamide] | > 5.70
10 | > 6.52 | > 6.52 | > 6.52 | < 5.52 |  | 5.52 to 6.00 | CCCS(=O)(=O)Nc1ccc(F)c(Nc2ncnc3ccc(-c4ccc(N5CCOCC5)nc4)cc23)c1F [compound 2, N-(2,4-difluoro-3-(6-(6-morpholinopyridin-3-yl)quinazolin-4-ylamino)phenyl)propane-1-sulfonamide] | > 5.70
11 | > 6.52 | > 6.52 | > 6.52 | < 5.52 | < 5.52 |  | CCCS(=O)(=O)Nc1ccc(F)c(Nc2ncnc3ccc(-c4ccc(F)nc4)cc23)c1F [compound 3, N-(2,4-difluoro-3-(6-(6-fluoropyridin-3-yl)-quinazolin-4-ylamino)phenyl)propane-1-sulfonamide] | > 5.70
12 | > 6.52 | > 6.52 | > 6.52 | < 5.52 |  | 6.00 to 6.52 | CCCS(=O)(=O)Nc1ccc(F)c(Nc2ncnc3ccc(-c4cn[nH]c4)cc23)c1F [compound 4, N-(3-(6-(1H-pyrazol-4-yl)quinazolin-4-ylamino)-2,4-difluorophenyl)propane-1-sulfonamide] | 
13 | > 6.52 | > 6.52 | > 6.52 | < 5.52 | < 5.52 |  | CCCS(=O)(=O)Nc1ccc(F)c(Nc2ncnc3cc(F)c(-c4cccnc4F)cc23)c1F [compound 7, N-(2,4-difluoro-3-(7-fluoro-6-(2-fluoropyridin-3-yl)quinazolin-4-ylamino)phenyl)propane-1-sulfonamide] | > 5.70
